From US20070218189A1, “Reduction inhibitory agent for active oxygen eliminating-activity” (KABUSHIKI KAISHA HAYASHIBARA SEIBUTSU KAGAKU KENYUJO, priority 2001, published 2007)

Key:
Format in all cases: biochemical
[1] = system: superoxide, formed in a xanthine-xanthine oxidase system; experiment: Active oxygen eliminating activity of powdery carrot compositions with saccharides before and after storage, nitro blue tetrazolium (NBT) test (Experiment 3); conditions: for Activity (unit/g) After storage / Percentage of residual activity (%) / Activity (unit/g) Before storage: powdery carrot composition; for Activity (unit/g) After storage / Percentage of residual activity (%): saccharide added at 10% d.s.b., stored at 40° C. for seven days; for Activity (unit/g) Before storage: saccharide added to disrupted carrots at 10% d.s.b.; for residual percentage / reduction inhibitory activity for active oxygen eliminating activity among the saccharides tested: powdery carrot compositions, 40° C. seven days, in words
Description: Fresh raw carrots were disrupted by a mixer, and saccharides were respectively added to the mixture and dissolved therein to give a concentration of 10%, d.s.b. The solutions were dried under a reduced pressure at 40° C. for two days, dried in vacuo at the same temperature for 24 hours, and pulverized by a mixer into powdery carrot compositions. […] An about 100 g each of the compositions was placed and sealed in a 500-ml polystyrene container, and stored at 40° C. for seven days. The active oxygen eliminating activities of the compositions before and after storage were compared with each other. The active oxygen eliminating activity was assayed by the nitro blue tetrazolium (NBT) test by Toshio IMANARI et al. in Igakuno Ayumi, Vol. 101, pp. 496-497 (1977), and the level of superoxide, formed in a xanthine-xanthine oxidase system, was assayed by quantifying calorimetrically the content of formazan formed by reducing NBT. As a control, refined water was used as a test solution. One unit activity of active oxygen eliminating activity was defined as that inhibited 50% formazan formation as compared with the control. […] Thus cyclotetrasaccharide is preferable as an effective ingredient for a reduction inhibitory agent for active oxygen eliminating activity.

[2] = system: superoxide, formed in a hypoxanthine-xanthine oxidase system; experiment: Active oxygen eliminating activity of powdery carrot compositions with saccharides before and after storage, electron spin resonance (ESR) test (Experiment 4); conditions: powdery carrot composition
Description: Fresh raw carrots were disrupted as Experiment 3, and saccharides were respectively added to the mixture and dissolved therein to give a concentration of 10%, d.s.b. The solutions were dried under a reduced pressure at 40° C. for one day, dried in vacuo at the same temperature for 17 hours, and pulverized by a mixer into powdery carrot compositions. […] About 100 g each of the compositions was placed and sealed in a 500-ml polystyrene container, and stored at 40° C. for seven or fourteen days. The active oxygen eliminating activities of the compositions before and after storage were compared with each other. The active oxygen eliminating activity was assayed by the electron spin resonance (ESR) test by Toshihiko OZAWA in BUNSEKI, Vol. 2, pp. 68-74 (2000), and the level of superoxide, formed in a hypoxanthine-xanthine oxidase system, was assayed by the spin-trapping with 5,5-dimethyl-1-pyrroline-N-oxide in ESR.

active oxygen = experiment: Active oxygen eliminating activity of superoxide dismutase and antioxidants in cyclotetrasaccharide solution or water before and after storage (Experiment 7); conditions: for Activity (unit/mg antioxidant) After one storage / Residual activity (%): dark; for Activity (unit/mg antioxidant) Before storage: superoxide dismutase 5 μg/ml, α-glucosyl hesperidin and α-glucosyl rutin 10 mg/ml, catechin 50 μg/ml
Description: In one milliliter of 30% (w/v) cyclotetrasaccharide solution, which is prepared by using cyclotetrasaccharide obtained in Experiment 2, was dissolved five micrograms (μ g) of superoxide dismutase from a horseradish commercialized by Sigma Chemical Co., St. Louis, USA, 10 mg of α-glucosyl hesperidin commercialized by Hayashibara Biochemical Laboratories, Inc., Okayama Japan, 10 mg of α-glucosyl rutin commercialized by Hayashibara Biochemical Laboratories, Inc., Okayama, Japan, 250 μg of gallic acid commercialized by Wako Pure Chemical Industries, Ltd., Tokyo, Japan, or 50 μg of catechin to obtain a liquid composition. Each of the compositions was placed in a glass test tube, sealed with a rubber cap, and stored under a dark condition. As a control, water was used in place of the cyclotetrasaccharide solution.

[3] = cyclotetrasaccharide 0% (water), 80° C. 5 days, α-glucosyl hesperidin, α-glucosyl rutin 10 mg/ml, gallic acid 250 μg/ml
[4] = cyclotetrasaccharide 30%, 80° C. 5 days, α-glucosyl hesperidin, α-glucosyl rutin 10 mg/ml, gallic acid 250 μg/ml
[5] = cyclotetrasaccharide concentration 0% (water), gallic acid 250 μg/ml
[6] = cyclotetrasaccharide concentration 30%, gallic acid 250 μg/ml
[7] = cyclotetrasaccharide 0% (water), 60° C. 17 hours, 5 μg/ml
[8] = cyclotetrasaccharide 30%, 60° C. 17 hours, 5 μg/ml
[9] = cyclotetrasaccharide 0% (water), 25° C. 20 hours, 50 μg/ml
[10] = cyclotetrasaccharide 30%, 25° C. 20 hours, 50 μg/ml

Molecule	Activity (unit/g) After storage [1] [unit/g]	Percentage of residual activity (%) [1] [%]	Activity (unit/g) Before storage [1] [unit/g]	Activity (unit/mg antioxidant) Before storage (active oxygen; [5])	Activity (unit/mg antioxidant) Before storage (active oxygen; [6])	further results
OC[C@H]1O[C@H](O[C@H]2[C@H](O)[C@@H](O)C(O)O[C@@H]2CO)[C@H](O)[C@@H](O)[C@@H]1O (mixture of isomers) [Maltose, maltose]	180	33	550	–	–	Activity (unit/g) Before storage ([2]; saccharide added at 10% d.s.b., before storage): 236 unit/g; Activity (unit/g) After two weeks storage ([2]; stored at 40° C. for fourteen days): 53 unit/g; percentage of residual activity After two weeks storage ([2]; stored at 40° C. for fourteen days, numerals in parentheses): 22%; Activity (unit/g) After one week storage ([2]; stored at 40° C. for seven days): 56 unit/g; percentage of residual activity After one week storage ([2]; stored at 40° C. for seven days, numerals in parentheses): 24%
O=C(O)c1cc(O)c(O)c(O)c1 [Gallic acid, gallic acid]	–	–	–	590 unit/mg antioxidant	600 unit/mg antioxidant	Activity (unit/mg antioxidant) After one storage (active oxygen; [3]): 390 unit/mg antioxidant; Residual activity (%) (active oxygen; [3]): 66%; Activity (unit/mg antioxidant) After one storage (active oxygen; [4]): 450 unit/mg antioxidant; Residual activity (%) (active oxygen; [4]): 75%
OC[C@@H](O)[C@@H](O)[C@H](O)[C@H](O)CO [Mannitol, mannitol]	59	11	520	–	–	–
OC[C@@H](O)[C@@H](O)[C@H](O)[C@@H](O)CO [Sorbitol, sorbitol]	26	5	560	–	–	–
OC[C@H]1O[C@@](CO)(O[C@H]2O[C@H](CO)[C@@H](O)[C@H](O)[C@H]2O)[C@@H](O)[C@@H]1O [Sucrose, sucrose]	180	27	660	–	–	–
OC[C@H]1O[C@H](O[C@H]2O[C@H](CO)[C@@H](O)[C@H](O)[C@H]2O)[C@H](O)[C@@H](O)[C@@H]1O [Trehalose, trehalose]	380	66	580	–	–	residual percentage / reduction inhibitory activity for active oxygen eliminating activity among the saccharides tested [1]: highest residual percentage
OCC1OC2OCC3O[C@H](O[C@H]4C(O)C(CO)OC(OCC5O[C@H](O[C@@H](C1O)C2O)C(O)C(O)[C@@H]5O)C4O)C(O)C(O)[C@@H]3O (some centres unmarked) [crystalline cyclotetrasaccharide hydrate]	–	–	–	–	–	change of the active oxygen eliminating activity on storage of a powder mixture (active oxygen; powdery crystalline cyclotetrasaccharide hydrate mixed dry with either of the powdery antioxidants, storage test as in Table 5): almost no change of the active oxygen eliminating activity
Superoxide dismutase	–	–	–	10,000 unit/mg antioxidant	12,000 unit/mg antioxidant	Activity (unit/mg antioxidant) After one storage (active oxygen; [7]): 4,600 unit/mg antioxidant; Residual activity (%) (active oxygen; [7]): 46%; Activity (unit/mg antioxidant) After one storage (active oxygen; [8]): 7,300 unit/mg antioxidant; Residual activity (%) (active oxygen; [8]): 61%
catechin	–	–	–	470 unit/mg antioxidant	450 unit/mg antioxidant	Activity (unit/mg antioxidant) After one storage (active oxygen; [9]): 2.2 unit/mg antioxidant; Residual activity (%) (active oxygen; [9]): 0%; Activity (unit/mg antioxidant) After one storage (active oxygen; [10]): 240 unit/mg antioxidant; Residual activity (%) (active oxygen; [10]): 53%
pullulan	360	51	710	–	–	residual percentage / reduction inhibitory activity for active oxygen eliminating activity among the saccharides tested [1]: relatively-high reduction inhibitory activity
α-glucosyl hesperidin	–	–	–	3.8 unit/mg antioxidant	4.0 unit/mg antioxidant	Activity (unit/mg antioxidant) After one storage (active oxygen; [3]): 1.0 unit/mg antioxidant; Residual activity (%) (active oxygen; [3]): 26%; Activity (unit/mg antioxidant) After one storage (active oxygen; [4]): 2.1 unit/mg antioxidant; Residual activity (%) (active oxygen; [4]): 53%
α-glucosyl rutin	–	–	–	25 unit/mg antioxidant	26 unit/mg antioxidant	Activity (unit/mg antioxidant) After one storage (active oxygen; [3]): 18 unit/mg antioxidant; Residual activity (%) (active oxygen; [3]): 72%; Activity (unit/mg antioxidant) After one storage (active oxygen; [4]): 22 unit/mg antioxidant; Residual activity (%) (active oxygen; [4]): 85%
